Reference: US5633276A, “Indoline derivatives, method of preparation and use” (Glaxo Group Limited, priority 1993, dated 1997)
Structures can show the parent of a compound that is named as a salt.

target: melatonin receptors in chicken retinal membranes; experiment: Binding to melatonin receptors in chicken retinal membranes; details: method of Dubocovich and Takahashi, read-out: Chicken retina Ki
Source text: (§1) The results obtained for particular compounds according to the present invention are as follows:

Ki | SMILES
1680 pM | O=C(NCCN1CCc2ccc3c(c21)CCO3)C1CC1 [Example 6, Cyclopropanecarboxylic acid [2-(2,3,7,8-tetrahydro-1H-furo[2,3-g]indol-1-yl)-ethyl]-amide]
3210 pM | CC(=O)NCCN1CCc2cc(Cl)c3c(c21)CCO3 [Example 5, N-[2-(5-Chloro-2,3,7,8-tetrahydro-1H-furo[2,3-g]indol-1-yl)-ethyl]-acetamide]
4920 pM | CC(=O)NCCN1CCc2ccc3c(c21)CCCO3 [Example 2, N-[2-(2,3,8,9-Tetrahydro-7H-pyrano[2,3-g]indol-1-yl)-ethyl]-acetamide hydrochloride]
420 pM | CC(=O)NCCN1CCc2ccc3c(c21)CCO3 [Example 3, N-[2-(2,3,7,8-Tetrahydro-1H-furo[2,3-g]indol-1-yl)ethyl]-acetamide]

test system: rabbit retina; experiment: Melatonin agonist or antagonist activity in rabbit retina; assay type: cell-based; details: Oryctolagus cuniculus, method of Dubocovich
Source text: as §1

IC50 | SMILES
200 pM | O=C(NCCN1CCc2ccc3c(c21)CCO3)C1CC1 [Example 6, Cyclopropanecarboxylic acid [2-(2,3,7,8-tetrahydro-1H-furo[2,3-g]indol-1-yl)-ethyl]-amide]
950 pM | CC(=O)NCCN1CCc2ccc3c(c21)CCCO3 [Example 2, N-[2-(2,3,8,9-Tetrahydro-7H-pyrano[2,3-g]indol-1-yl)-ethyl]-acetamide hydrochloride]
40 pM | CC(=O)NCCN1CCc2ccc3c(c21)CCO3 [Example 3, N-[2-(2,3,7,8-Tetrahydro-1H-furo[2,3-g]indol-1-yl)ethyl]-acetamide]
